Test results reported in PubChem BioAssay (NCI).
Several values for one entry are separate records, joined by “and”; a condition that tells them apart may be missing. Equal entries are not always repeated.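 Where inhibition never reached the appropriate level, the endpoint shown equals the highest concentration tested. Otherwise, values were interpolated linearly from a five-concentration, 48-hour dose response in 96-well plates. The concentration for 50% growth inhibition is given as GI50. The concentration for full growth arrest is given as TGI.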

What was measured:
Assay in all cases: DTP human tumour cell line panel, 48 h
[1] = tested on: M19-MEL melanoma
[2] = tested on: DMS 114 small cell lung
[3] = tested on: DLD-1 colon
[4] = tested on: RXF-631 renal
[5] = tested on: DMS 273 small cell lung
[6] = tested on: LXFL 529 NSCLC
[7] = tested on: T-47D breast
[8] = tested on: XF 498 CNS
[9] = tested on: MDA-N

| Compound | TGI [1] [µM] | TGI [2] [µM] | TGI [3] [µM] | TGI [5] [µM] | TGI [6] [µM] | TGI [7] | GI50 [7] | also measured |
| --- | --- | --- | --- | --- | --- | --- | --- | --- |
| CC[C@@H]1NC(C(=O)OC)Cc2c1[nH]c1ccccc21 (stereo partly specified) | > 100 | > 100 | > 100 | > 100 | > 100 | – | – | TGI [4]: > 100 µM |
| CCCCNCCCNCCCNC(=O)c1csc(-c2csc(CCNC(=O)C(NC(=O)C(C)C(O)C(C)NC(=O)C(NC(=O)c3nc(C(CC(N)=O)NCC(N)C(N)=O)nc(N)c3C)C(OC3OC(CO)C(O)C(O)C3OC3OC(CO)C(O)C(OC(N)=O)C3O)c3cnc[nH]3)C(C)O)n2)n1 (stereo unspecified) | > 100 | 8.73 | > 100 | 2.97 | > 100 | 50 µM | – | TGI [4]: > 100 µM |
| O=c1[nH]c(O)c(C=Nc2ccc(-c3nc4ccccc4o3)cc2)c(=O)[nH]1 | – | – | – | – | – | > 100 µM | 93.7 µM | – |
| CCCCCCCCc1cc2c(O)c(c1)Cc1cc(CCCCCCCC)cc(c1O)Cc1cc(CCCCCCCC)cc(c1O)Cc1cc(CCCCCCCC)cc(c1O)Cc1cc(CCCCCCCC)cc(c1O)Cc1cc(CCCCCCCC)cc(c1O)C2 | – | > 100 | > 100 | – | > 100 | – | – | TGI [4]: > 100 µM; TGI [8]: > 100 µM |
| NC(N)=Nc1nc2ccccc2o1 | – | – | – | – | – | > 100 µM | > 100 µM | – |
| COc1c2occc2c(N)c2ccc(=O)oc12 | – | – | – | – | – | > 100 µM | – | TGI [9]: > 100 µM |
| O/N=C1\CCCCC1C(NO)c1ccccc1 (stereo unspecified) | > 100 | > 100 | > 100 | > 100 | > 100 | – | – | TGI [4]: > 100 µM |
| CCOC(=O)C(Br)=C1OC(=O)c2ccccc2-c2ccccc21 (mixture of isomers) | 31 | 32.2 | 36.4 | 29 | 26.5 | – | – | TGI [4]: 49.9 µM; TGI [8]: 38.5 µM |
| O=C(c1ccc([N+](=O)[O-])cc1[N+](=O)[O-])N(/N=C/C=C/c1ccccc1)c1nnc(-c2ccccc2)c(-c2ccccc2)n1 | > 100 | > 100 | > 100 | 72.6 | – | – | – | TGI [8]: 42.3 µM |
| COc1ccc(-c2cc(=O)oc3c4c(ccc23)OCN(Cc2ccc(F)cc2)C4)cc1 | – | – | – | – | – | 43.8 µM | 13.5 µM | – |
| Cc1cccc(NC2=C(Cl)C(=O)c3nc(C)ccc3C2=O)c1 | – | – | – | – | – | 4.29 µM | 1.65 µM | – |
| CCSc1nc(N=Cc2ccccc2O)c2cn[nH]c2n1 | – | – | – | – | – | > 100 µM | 33.4 µM | – |
| COc1ccc(Cl)cc1NC(=O)c1ccc(NC2=C(Cl)C(=O)N(Cc3ccccc3)C2=O)cc1 | – | – | – | – | – | > 100 µM | > 100 µM | – |
| COc1cc(C[P+](c2ccccc2)(c2ccccc2)c2ccccc2)cc(OC)c1OC | > 100 | > 100 | > 100 | > 100 | > 100 | – | – | TGI [8]: > 100 µM |
| CCn1cc(-c2ccnc3[nH]c(-c4cccc(CN(C)C)c4)cc23)c(-c2ccc(NC(=O)N(C)C)cc2)n1 | – | – | – | – | – | 77.3 µM and > 10 µM | 13.3 µM and > 10 µM | – |
| CCCCCCCCSC1=C(Cl)C(=O)C(OC)=C(OC)C1=O | – | – | – | – | – | 36.2 µM | – | TGI [9]: 17.6 µM |
| O=C(Nc1nc(-c2c[nH]c3ccccc23)cs1)c1n[nH]c(=O)c2ccccc12 | – | – | – | – | – | > 96.2 µM | > 46.4 µM | – |
| NCCCn1c2c(c3ccc([N+](=O)[O-])cc3c1=O)C(=O)c1cc(I)ccc1-2 | – | – | – | – | – | 2.08 µM | 0.0446 µM | – |

| Compound | TGI [1] [µM] | TGI [2] [µM] | TGI [3] [µM] | TGI [5] [µM] | TGI [6] [µM] | TGI [7] | GI50 [7] | also measured |
| --- | --- | --- | --- | --- | --- | --- | --- | --- |
| O=S(=O)(OI(OI(OS(=O)(=O)C(F)(F)F)c1ccccc1)c1ccccc1)C(F)(F)F | > 100 | 55 | > 100 | > 100 | > 100 | – | – | – |
| CCCN(CCC)c1c([N+](=O)[O-])cc(C(=O)N(CC)CC)cc1[N+](=O)[O-] | 47.8 | 42.8 | > 100 | 43.7 | 63.7 | – | – | – |
| CCCCCCCC(=O)OCC1OC(n2cc(F)c(=O)[nH]c2=O)C(N)C(OC(=O)CCCCCCC)C1O (stereo unspecified) | 36 | – | – | 30.8 | 30.9 | – | – | – |
| COc1nc(=O)n(C2C=CC(=O)O2)cc1F (stereo unspecified) | – | – | – | – | – | 7.24 µM | 2.24 µM | – |
| COC(=O)C1=CN(CC2=CC(=O)C(C)=CC2=O)C=C(C(=O)OC)C1c1ccccc1OC | – | – | – | – | – | > 100 µM | 52.8 µM | – |
| O=c1[nH]c(=O)n(C2CC(O)C(CO)O2)cc1OS(=O)(=O)C(F)(F)F (stereo unspecified) | > 100 | > 100 | > 100 | > 100 | > 100 | – | – | TGI [4]: > 100 µM; TGI [8]: > 100 µM |
| CC(C)C1CN(C(=O)OCc2ccccc2)C2N1C(=O)C2(C)OCc1ccccc1 (stereo unspecified) | > 100 | > 100 | > 100 | > 100 | > 100 | – | – | TGI [4]: > 100 µM; TGI [8]: 33.5 µM |
| CN(Cc1cnc2nc(N)nc(N)c2n1)c1ccc(C(=O)N[C@@H](CCS(=O)(=O)O)C(=O)O)cc1 | – | – | – | – | – | > 100 µM | – | TGI [9]: > 100 µM |
| COc1cc2c(cc1OCCCN1CCN(CCCOc3cc4c(cc3OC)C(=O)N3CC(F)(F)C[C@H]3C=N4)CC1)N=C[C@@H]1CC(F)(F)CN1C2=O | – | – | – | – | – | 36.9 µM | 3.25 µM | – |
| O=C1C=C(c2c(O)ccc3ccccc23)c2cc(O)ccc2C1=O | 9.68 | 19.6 | 37.6 | 30.8 | 19.5 | – | – | TGI [8]: 23.3 µM |
| Cc1nc2sccn2c1-c1nc2sccn2c1/C=C1/C(=O)Nc2ccccc21 | – | – | – | – | – | 63.6 µM | 3.47 µM | – |
| CSC[C@H](NC(=O)COc1cccc2cnccc12)C(=O)NC(Cc1ccccc1)C(O)C(=O)N1CSC[C@H]1C(=O)NC(C)(C)C (stereo partly specified) | – | – | – | – | – | > 100 µM | – | TGI [9]: > 100 µM |
| NNc1ncnc2nc[nH]c12 | – | – | – | – | – | > 100 µM | 3.67 µM | – |
| CC(C)=CCC1=C(O)c2ccccc2C(=O)C1=O | > 100 | > 100 | – | > 100 | > 100 | > 100 µM | – | GI50 [1]: 48.5 µM and 20.8 µM; TGI [4]: > 100 µM; TGI [8]: > 100 µM; GI50 [5]: 37.8 µM and 9.15 µM; GI50 [6]: > 100 µM and 16.2 µM; TGI [9]: > 100 µM |
| O=c1[nH]c(-c2cccc(F)c2)cc2cc(F)ccc12 | – | – | – | – | – | > 100 µM | > 100 µM | – |
| CCOc1ccc(NC(=O)CC2SC(=Nc3ccc(C)cc3C)NC2=O)cc1 (stereo unspecified) | > 100 | – | > 100 | > 100 | > 100 | – | – | TGI [8]: > 100 µM |
| CNc1cc2oc(=O)cc(C)c2cc1C | – | – | – | – | – | > 100 µM | – | TGI [9]: > 100 µM |
